Results taken from patent US8709764B2, “Enzymatic demethylation of flavonoids” (Universiteit Gent, priority 2005, dated 2014).

Assays:
human fecal cultures = assay: Incubation of X or IX with human fecal cultures A-D for 8 days, conversion products detected by HPLC; assay type: in vitro ADME; settings: fecal cultures A, B and D, 25 mg/l, 8 days
Experimental: Fecal slurries of 20% (w/v) fresh fecal samples were prepared by homogenizing the feces with phosphate buffered saline (0.1 M, pH 7) containing 1 g/l sodiumthioglycolate as reducing agent. The particulate material was removed by centrifugation (1 min, 500×g). The supernatant is hereafter called “the culture”.
(§1) The capacity of the cultures obtained from fecal samples A, B, C and D (further referred as cultures A-D) to degrade or transform the hop prenylflavonoid IX was tested by incubating the fecal cultures (10% (v/v)) in Brain Heart Infusion broth (with 0.5 g/l cystein-HCl) with 25 mg/l of isoxanthohumol for a period of 8 days under anaerobic conditions. Extracts of the incubations at days 0 and 8 were assayed for bioactive transformation products of IX using a Yeast Estrogenic Screen, according to De Boever et al. (2001) Env. Health Perspectives 109, 691-697, based on Routledge & Sumpter (1996) Environ. Toxicol. Chem. 15, 241-248. In brief, Saccharomyces cerevisiae, was transformed with the human estrogen receptor (ERα) gene, together with expression plasmids containing responsive elements and the lacZ reporter gene (encoding the enzyme β-galactosidase). β-galactosidase activity is quantified at 540 nm by the conversion of the chromogenic substance chlorophenol red-β-D-galactopyranoside into chlorophenol red. The bioassay response is expressed as the absorbance at 540 nm divided by the optical density at 630 nm [(A540/A630)net]. The estrogenic activity of the samples was expressed as percentage equivalence to 10 nM estradiol (E2) which elicited a 100% response in the estrogen receptor bioassay. The bioassays were performed in 96-well plates in which 10 μL of the test compounds were tested and incubated with 240 μL of the genetically modified yeast (optical density of 0.25 at 610 nm). Serial dilutions of the test compounds were made in dimethylsulfoxide, which allowed generating dose-response curves for doses (ordinate) versus activity (abscissa). The data were fitted by a 4 parametric logistic model using the Marquardt-Levenberg algorithm (Sigmaplot 4.0, SPSS Inc., Chicago, Ill., USA) (De Boever et al. (2001) Env. Health Perspectives 109, 691-697).
To further test this transformation, cultures A-D (10% (v/v)) were incubated for 8 days in Brain Heart Infusion broth (with 0.5 g/l cystein-HCl) with either X or IX at a concentration of 25 mg/l under anaerobic conditions and conversion products were detected by HPLC (Table 1). […] However, in culture C almost 40% of 8-PN was recovered, which explains the increase in estrogenic properties of culture C.

[1] = biological target: T1, human estrogen receptor (ERα) (Homo sapiens, UniProt P03372); assay: Yeast Estrogenic Screen of extracts of fecal culture incubations with IX; assay type: cell-based
T1 construct: expressed in transfected cells; host or cells: Saccharomyces cerevisiae
T1 sequence (P03372 1-595): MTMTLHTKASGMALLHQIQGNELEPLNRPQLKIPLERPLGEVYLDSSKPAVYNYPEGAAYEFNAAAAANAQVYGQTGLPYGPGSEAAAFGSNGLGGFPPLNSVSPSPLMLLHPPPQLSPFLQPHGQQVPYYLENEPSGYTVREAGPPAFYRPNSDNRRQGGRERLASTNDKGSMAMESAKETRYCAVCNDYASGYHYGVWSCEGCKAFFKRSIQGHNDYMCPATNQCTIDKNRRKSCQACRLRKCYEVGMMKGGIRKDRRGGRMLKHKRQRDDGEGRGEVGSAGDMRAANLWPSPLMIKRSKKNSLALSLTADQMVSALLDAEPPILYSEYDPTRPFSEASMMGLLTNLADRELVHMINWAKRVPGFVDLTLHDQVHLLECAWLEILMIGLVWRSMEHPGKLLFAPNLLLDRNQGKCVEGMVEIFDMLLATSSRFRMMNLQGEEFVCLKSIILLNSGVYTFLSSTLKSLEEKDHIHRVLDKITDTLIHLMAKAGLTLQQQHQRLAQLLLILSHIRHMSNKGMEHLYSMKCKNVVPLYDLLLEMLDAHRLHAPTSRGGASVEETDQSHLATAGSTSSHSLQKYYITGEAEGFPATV
Experimental: as §1, with “The bioassays were performed in 96-well plates in which 10 μL of the test compounds were tested and incubated with 240 μL of the genetically modified yeast (optical density of 0.25 at 610 nm). Serial dilutions of the test compounds were made in dimethylsulfoxide, which allowed generating dose-response curves for doses (ordinate) versus activity (abscissa). The data were fitted by a 4 parametric logistic model using the Marquardt-Levenberg algorithm (Sigmaplot 4.0, SPSS Inc., Chicago, Ill., USA) (De Boever et al. (2001) Env. Health Perspectives 109, 691-697).” left out

[2] = Incubation of IX and 8-PN with Eubacterium limosum for 13 days; assay type: in vitro ADME; settings: Eubacterium limosum, Eubacterium limosum ATCC 8486 culture; E. limosum, 25 mg/l substrate, 13 days anaerobic; average (stdev) molar percentage
Experimental: Eubacterium limosum ATCC 8486 and Peptostreptococcus productus ATCC 27340 were obtained from the German Collection of Microorganisms and Cell Cultures (DSMZ, Braunschweig, Germany). E. limosum was incubated for 13 days in Brain Heart Infusion broth (with 0.5 g/l cystein-HCl) with 25 mg/l of IX and 8-PN under anaerobic conditions (Table 2). This strain was able to convert IX into 8-PN. […] This feature is clearly different from the metabolic pathway as observed in liver microsomes wherein 8-PN is extensively further metabolised [Nikolic et al. (2005) J. of Mass Spectrom. 40, 289-299; Nikolic et al. (2004) Drug Metabolism and Disposition 32, 272-279].

[3] = Urinary IX and 8-PN excretion in axenic and Human Flora Associated (HFA) rats; assay type: in vivo, rat; settings: 2 mg IX/kg body weight daily
Experimental: An experiment with axenic and Human Flora Associated (HFA) rats was performed to test the capacity of the selected strain of example 2 to activate methylated prenylflavonoids in vivo. A total of 12 axenic rats were used for the study. When the rats were 5 weeks old, 3 HFA rats were associated by oral gavage with a freshly voided, homogenized fecal culture which has prenylflavonoid demethylating activity. These HFA rats were designated PF+ rats.
At the same time, 3 HFA rats were associated by oral gavage with a freshly voided, homogenized fecal culture without prenylflavonoid demethylating activity. These HFA rats were designated PF− rats. The remaining rats were kept under sterile conditions. All rats were kept in separate, closed collective cages prior to the start of the experiment.
After 3 weeks of stabilization of the microbial cultures inside the rat intestine, a first experiment was started. After moving the rats to individual metabolism cages, 2 mg IX/kg body weight was daily administered to each rat for 5 days and each day 24 h-pooled urine was collected. After 3 days, the urinary IX and 8-PN excretion was quantified. […]
Herein, the 6 axenic rats were associated with the selected E. limosum strain of example 2 for 7 days by daily oral gavage with a log 9 bacterial suspension. […] On day 7, the urinary IX and 8-PN excretion was quantified.

COc1cc(O)c(CC=C(C)C)c2c1C(=O)C[C@@H](c1ccc(O)cc1)O2 [IX, 5-O-methyl-8-prenylnaringenin]
Transformation of IX (human fecal cultures): recalcitrant to transformation
Estrogenic response of incubation extracts ([1]; fecal culture C incubated with 25 mg/l IX, after 8 days): strong increase in the estrogenic properties
Estrogenic response of incubation extracts ([1]; fecal cultures A-D incubated with 25 mg/l IX, day 0): None of the incubations showed an estrogenic response
recovery at 13 days, 25 mg/l [2]: 51.4%
24 h-pooled urinary % 8-PN/(IX + 8-PN) excretion, Mean (Stdev) ([3]; PF+ HFA rats): 55.3 (9.1) %
24 h-pooled urinary % 8-PN/(IX + 8-PN) excretion, Mean (Stdev) ([3]; PF− HFA rats): 23.6 (10.4) %
